Data as given in ChEMBL document CHEMBL1909046, “DrugMatrix in vitro pharmacology data”.

Columns and labels:
Melanocortin receptor 4 = Melanocortin receptor 4 (Homo sapiens, UniProt P32245); assay type: cell membranes, Membrane; details: hek293; further: in other assays of this panel Not Active means under 50% inhibition at 10 µM
[1] = DRUGMATRIX: Phorbol Ester radioligand binding (ligand: [3H] PDBu); assay type: cell membranes, Mus musculus, ICR, Brain, Membrane; details: Not Active = under 50% inhibition at 10 µM
[2] = target: T1, Neuropeptide Y receptor type 2 (Homo sapiens, UniProt P49146); assay type: cell membranes, Membrane; details: kan-ts; further: in other assays of this panel Not Active means under 50% inhibition at 10 µM
T1 sequence (P49146 whole entry): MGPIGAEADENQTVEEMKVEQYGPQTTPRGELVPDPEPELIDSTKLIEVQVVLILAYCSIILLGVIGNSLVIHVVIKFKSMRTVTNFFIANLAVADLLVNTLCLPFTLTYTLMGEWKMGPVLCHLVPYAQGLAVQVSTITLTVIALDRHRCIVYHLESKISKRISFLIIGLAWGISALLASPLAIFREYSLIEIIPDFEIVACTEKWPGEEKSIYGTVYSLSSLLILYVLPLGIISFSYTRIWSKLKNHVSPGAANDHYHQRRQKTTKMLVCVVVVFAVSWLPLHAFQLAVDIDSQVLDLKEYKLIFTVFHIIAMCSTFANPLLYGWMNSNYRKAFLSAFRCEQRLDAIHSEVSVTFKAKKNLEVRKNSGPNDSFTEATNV

[3] = DRUGMATRIX: GABAA, Muscimol, Central radioligand binding (ligand: [3H] Muscimol); assay type: cell membranes, Rattus norvegicus, Wistar, Brain, Membrane; details: Not Active = under 50% inhibition at 10 µM
[4] = target: Protein kinase C alpha type (Homo sapiens, UniProt P17252); assay type: cell-based; details: sf9;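 further: inhibition of PKCalpha kinase activity measured in an enzyme assay with histone as the phosphorylation substrate; in other assays of this panel Not Active means under 50% inhibition at 10 µM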
[5] = DRUGMATRIX: Potassium Channel [KATP] radioligand binding (ligand: [3H] Glyburide); assay type: cell membranes, Membrane; details: hit-t15; Not Active = under 50% inhibition at 10 µM
[6] = target: 5-hydroxytryptamine receptor 1B (Rattus norvegicus, UniProt P28564); assay type: cell membranes, Wistar, Cerebral cortex, Membrane; further: in other assays of this panel Not Active means under 50% inhibition at 10 µM
5-hydroxytryptamine receptor 1B, sequence (P28564 whole entry): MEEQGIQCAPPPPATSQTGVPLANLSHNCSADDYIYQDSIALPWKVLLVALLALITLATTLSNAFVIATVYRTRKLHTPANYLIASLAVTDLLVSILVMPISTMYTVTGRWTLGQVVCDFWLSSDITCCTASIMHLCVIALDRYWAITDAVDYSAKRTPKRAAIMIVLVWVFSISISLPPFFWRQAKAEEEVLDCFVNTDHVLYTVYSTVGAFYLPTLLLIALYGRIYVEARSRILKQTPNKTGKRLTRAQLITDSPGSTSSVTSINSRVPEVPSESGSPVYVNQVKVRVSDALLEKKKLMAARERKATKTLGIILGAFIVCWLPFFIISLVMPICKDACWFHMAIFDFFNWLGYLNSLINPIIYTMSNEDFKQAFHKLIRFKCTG

Melanocortin receptor 5 = Melanocortin receptor 5 (Homo sapiens, UniProt P33032); assay type: cell membranes, HEK293, Membrane; details: hek293; further: in other assays of this panel Not Active means under 50% inhibition at 10 µM
Melanocortin receptor 5, sequence (P33032 whole entry): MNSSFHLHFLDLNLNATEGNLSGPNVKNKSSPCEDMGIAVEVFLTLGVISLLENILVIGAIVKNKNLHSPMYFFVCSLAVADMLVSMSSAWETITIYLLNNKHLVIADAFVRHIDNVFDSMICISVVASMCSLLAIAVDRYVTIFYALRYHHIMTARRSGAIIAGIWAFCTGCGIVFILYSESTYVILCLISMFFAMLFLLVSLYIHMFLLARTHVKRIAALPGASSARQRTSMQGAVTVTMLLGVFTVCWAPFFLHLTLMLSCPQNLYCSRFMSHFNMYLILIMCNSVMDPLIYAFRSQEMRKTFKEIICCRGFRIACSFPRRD

Substance-K receptor = target: T2, Substance-K receptor (Homo sapiens, UniProt P21452); assay type: cell membranes, CHO, Membrane; details: cho; further: in other assays of this panel Not Active means under 50% inhibition at 10 µM
T2 sequence (P21452 whole entry): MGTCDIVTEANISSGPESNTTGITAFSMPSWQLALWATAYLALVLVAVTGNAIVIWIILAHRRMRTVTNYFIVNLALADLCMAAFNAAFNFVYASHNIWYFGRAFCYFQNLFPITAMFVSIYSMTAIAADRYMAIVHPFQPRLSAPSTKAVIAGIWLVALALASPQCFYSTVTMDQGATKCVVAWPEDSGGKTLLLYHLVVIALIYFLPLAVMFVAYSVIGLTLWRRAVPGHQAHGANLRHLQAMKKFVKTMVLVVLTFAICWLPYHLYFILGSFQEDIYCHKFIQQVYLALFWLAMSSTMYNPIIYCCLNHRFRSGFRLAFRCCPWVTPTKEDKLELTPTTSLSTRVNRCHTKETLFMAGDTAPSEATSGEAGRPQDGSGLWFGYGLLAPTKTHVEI

[7] = target: Aldo-keto reductase family 1 member B1 (Rattus norvegicus, UniProt P07943); assay type: tissue-based, Lens of camera-type eye
[8] = DRUGMATRIX: Tumor Necrosis Factor (TNF), Non-Selective radioligand binding (ligand: [125I] TNF-alpha); assay type: cell membranes, Membrane; details: u-937; Not Active = under 50% inhibition at 10 µM
[9] = DRUGMATRIX: ATPase, Na+/K+ enzyme inhibition (substrate: ATP); assay type: tissue-based, Sus scrofa, Heart; details: Not Active = under 50% inhibition at 10 µM
[10] = target: T3, Vasoactive intestinal polypeptide receptor 1 (Homo sapiens, UniProt P32241); assay type: cell membranes, Membrane; details: ht-29; further: in other assays of this panel Not Active means under 50% inhibition at 10 µM
T3 sequence (P32241 whole entry): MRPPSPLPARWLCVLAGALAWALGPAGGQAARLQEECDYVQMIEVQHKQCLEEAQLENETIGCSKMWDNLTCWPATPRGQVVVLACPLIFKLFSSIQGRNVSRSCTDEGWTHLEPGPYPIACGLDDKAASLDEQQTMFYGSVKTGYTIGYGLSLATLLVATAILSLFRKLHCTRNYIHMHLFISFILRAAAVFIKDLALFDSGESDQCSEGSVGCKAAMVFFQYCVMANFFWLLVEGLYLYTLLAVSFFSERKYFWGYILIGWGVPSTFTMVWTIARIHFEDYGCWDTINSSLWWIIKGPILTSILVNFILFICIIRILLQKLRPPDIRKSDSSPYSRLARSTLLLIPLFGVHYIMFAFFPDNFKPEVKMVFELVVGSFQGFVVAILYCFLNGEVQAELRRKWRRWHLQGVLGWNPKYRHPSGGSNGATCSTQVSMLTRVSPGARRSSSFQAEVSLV

Cannabinoid receptor 1 = Cannabinoid receptor 1 (Homo sapiens, UniProt P21554); assay type: cell membranes, Membrane; details: chem-1; further: in other assays of this panel Not Active means under 50% inhibition at 10 µM
Cannabinoid receptor 1, sequence (P21554 whole entry): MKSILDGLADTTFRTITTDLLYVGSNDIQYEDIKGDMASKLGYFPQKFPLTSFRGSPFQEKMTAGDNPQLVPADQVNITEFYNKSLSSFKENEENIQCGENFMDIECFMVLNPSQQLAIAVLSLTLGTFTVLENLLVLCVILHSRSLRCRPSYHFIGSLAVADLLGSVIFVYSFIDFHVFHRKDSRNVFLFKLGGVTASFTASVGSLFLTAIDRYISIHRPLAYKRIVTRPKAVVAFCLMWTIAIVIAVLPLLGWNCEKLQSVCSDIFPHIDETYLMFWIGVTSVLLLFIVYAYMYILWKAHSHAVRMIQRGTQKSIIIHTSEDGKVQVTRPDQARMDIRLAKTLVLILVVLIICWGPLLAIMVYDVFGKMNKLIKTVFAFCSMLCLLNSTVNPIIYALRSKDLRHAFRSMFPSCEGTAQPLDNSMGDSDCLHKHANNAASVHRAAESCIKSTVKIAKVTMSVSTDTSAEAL

[11] = target: Protein phosphatase 3 catalytic subunit alpha (Homo sapiens, UniProt Q08209); parameters: species or system Escherichia coli
[12] = target: T4, Muscarinic acetylcholine receptor M2 (Homo sapiens, UniProt P08172); assay type: cell membranes, CHO-K1, Membrane; details: cho-k1; further: in other assays of this panel Not Active means under 50% inhibition at 10 µM
T4 sequence (P08172 whole entry): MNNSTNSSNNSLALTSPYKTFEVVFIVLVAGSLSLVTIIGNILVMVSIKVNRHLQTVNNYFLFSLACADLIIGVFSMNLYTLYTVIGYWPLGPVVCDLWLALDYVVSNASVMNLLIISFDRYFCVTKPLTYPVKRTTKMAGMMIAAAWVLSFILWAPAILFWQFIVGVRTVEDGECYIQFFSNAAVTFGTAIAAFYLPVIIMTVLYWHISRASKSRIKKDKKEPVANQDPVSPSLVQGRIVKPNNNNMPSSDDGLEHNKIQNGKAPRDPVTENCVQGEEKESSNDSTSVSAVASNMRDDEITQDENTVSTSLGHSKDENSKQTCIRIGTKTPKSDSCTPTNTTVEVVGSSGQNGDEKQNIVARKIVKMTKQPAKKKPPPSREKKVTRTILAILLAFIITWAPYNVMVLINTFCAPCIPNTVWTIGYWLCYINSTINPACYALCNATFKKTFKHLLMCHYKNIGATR

[13] = DRUGMATRIX: Glutamate, Kainate radioligand binding (ligand: [3H] Kainic acid); assay type: cell membranes, Rattus norvegicus, Wistar, Brain, Membrane; details: Not Active = under 50% inhibition at 10 µM

Melanocortin receptor 4, sequence (P32245 whole entry): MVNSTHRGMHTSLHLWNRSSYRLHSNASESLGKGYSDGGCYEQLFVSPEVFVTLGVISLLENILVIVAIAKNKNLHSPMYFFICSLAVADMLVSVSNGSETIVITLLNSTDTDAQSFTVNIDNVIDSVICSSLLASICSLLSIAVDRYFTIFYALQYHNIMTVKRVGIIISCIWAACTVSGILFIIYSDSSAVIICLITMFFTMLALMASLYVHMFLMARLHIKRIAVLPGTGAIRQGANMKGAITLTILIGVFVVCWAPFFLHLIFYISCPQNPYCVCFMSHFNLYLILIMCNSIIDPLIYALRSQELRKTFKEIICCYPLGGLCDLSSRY

Clc1ccc(C(c2ccccc2Cl)C(Cl)Cl)cc1 (stereo not given) [MITOTANE]
Not Active: IC50 (Melanocortin receptor 4) | IC50 [1] | Ki [1] | IC50 [2] | IC50 [3] | Ki [3] | IC50 [4] | IC50 [5] | Ki [5] | IC50 [6] | IC50 (Melanocortin receptor 5) | IC50 (Substance-K receptor) | IC50 [7] | IC50 [8] | Ki [8] | IC50 [9] | Ki [9] | IC50 [10] | IC50 (Cannabinoid receptor 1) | IC50 [11] | IC50 [12] | IC50 [13] | Ki [13]

COc1c(C)c2c(c(O)c1C/C=C(\C)CCC(=O)OCCN1CCOCC1)C(=O)OC2 [MYCOPHENOLATE MOFETIL]
Not Active: IC50 (Melanocortin receptor 4) | IC50 [1] | Ki [1] | IC50 [2] | IC50 [3] | Ki [3] | IC50 [4] | IC50 [5] | Ki [5] | IC50 [6] | IC50 (Melanocortin receptor 5) | IC50 (Substance-K receptor) | IC50 [7] | IC50 [8] | Ki [8] | IC50 [9] | Ki [9] | IC50 [10] | IC50 (Cannabinoid receptor 1) | IC50 [11] | IC50 [12] | IC50 [13] | Ki [13]

COC(=O)C1=C(C)NC(C)=C(C(=O)OC)C1c1ccccc1[N+](=O)[O-] [NIFEDIPINE]
Not Active: IC50 (Melanocortin receptor 4) | IC50 [1] | Ki [1] | IC50 [2] | IC50 [3] | Ki [3] | IC50 [4] | IC50 [5] | Ki [5] | IC50 [6] | IC50 (Melanocortin receptor 5) | IC50 (Substance-K receptor) | IC50 [7] | IC50 [8] | Ki [8] | IC50 [9] | Ki [9] | IC50 [10] | IC50 (Cannabinoid receptor 1) | IC50 [11] | IC50 [12] | IC50 [13] | Ki [13]

NNc1ccccc1 [PHENYLHYDRAZINE]
Not Active: IC50 (Melanocortin receptor 4) | IC50 [1] | Ki [1] | IC50 [2] | IC50 [3] | Ki [3] | IC50 [4] | IC50 [5] | Ki [5] | IC50 [6] | IC50 (Melanocortin receptor 5) | IC50 (Substance-K receptor) | IC50 [7] | IC50 [8] | Ki [8] | IC50 [9] | Ki [9] | IC50 [10] | IC50 (Cannabinoid receptor 1) | IC50 [11] | IC50 [12] | IC50 [13] | Ki [13]

CC(=O)[C@H]1CC[C@H]2[C@@H]3CCC4=CC(=O)CC[C@]4(C)[C@H]3CC[C@]12C [PROGESTERONE]
Not Active: IC50 (Melanocortin receptor 4) | IC50 [1] | Ki [1] | IC50 [2] | IC50 [3] | Ki [3] | IC50 [4] | IC50 [5] | Ki [5] | IC50 [6] | IC50 (Melanocortin receptor 5) | IC50 (Substance-K receptor) | IC50 [7] | IC50 [8] | Ki [8] | IC50 [9] | Ki [9] | IC50 [10] | IC50 (Cannabinoid receptor 1) | IC50 [11] | IC50 [12] | IC50 [13] | Ki [13]
